Reference: patent publication US12077503B2, “Substituted cyclic amides and their use as herbicides” (FMC CORPORATION, priority 2015, dated 2024)

Experiments:
Experiment in all cases: Test C preemergence
Type in all cases: in vivo
Conditions in all cases: scale 0 to 100, 0 no effect, 100 complete control
[1] = tested on: Galium (catchweed bedstraw, Galium aparine)
Procedure, shortened: (§1)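 Preemergence application to seeds in loam/sand soil, or foliar (postemergence) application to plants 2–18 cm tall in peat moss/vermiculite medium; surfactant-containing non-phytotoxic solvent vehicle; greenhouse. Visual injury vs controls at 13–15 d; 0 = no effect, 100 = complete control.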

[2] = tested on: barnyardgrass (Echinochloa crus-galli)
Procedure, shortened: as §1

[3] = tested on: blackgrass (Alopecurus myosuroides)
Procedure, shortened: as §1

[4] = tested on: corn (Zea mays)
Procedure, shortened: as §1

[5] = tested on: crabgrass, large (large crabgrass, Digitaria sanguinalis)
Procedure, shortened: as §1

[6] = tested on: foxtail, giant (giant foxtail, Setaria faberii)
Procedure, shortened: as §1

[7] = tested on: lambsquarters (Chenopodium album)
Procedure, shortened: as §1

[8] = tested on: morningglory (Ipomoea coccinea)
Procedure, shortened: as §1

[9] = tested on: nutsedge, yellow (yellow nutsedge, Cyperus esculentus)
Procedure, shortened: as §1

[10] = tested on: oilseed rape (Brassica napus)
Procedure, shortened: as §1

[11] = tested on: pigweed (Amaranthus retroflexus)
Procedure, shortened: as §1

[12] = tested on: ragweed (common ragweed, Ambrosia elatior)
Procedure, shortened: as §1

[13] = tested on: ryegrass, Italian (Italian ryegrass, Lolium multiflorum)
Procedure, shortened: as §1

[14] = tested on: velvetleaf (Abutilon theophrasti)
Procedure, shortened: as §1

[15] = tested on: waterhemp (common waterhemp, Amaranthus rudis)
Procedure, shortened: as §1

[16] = tested on: wheat (winter wheat, Triticum aestivum)
Procedure, shortened: as §1

## CN1CC(c2ccc(C(F)(F)F)c(F)c2)C(C(=O)Nc2ccccc2S(C)(=O)=O)C1=O (stereo not drawn) [Compound 397]
[1]; 31 g ai/ha
  Plant response rating, Galium: 40
[1]; 62 g ai/ha
  Plant response rating, Galium: 80
[1]; 125 g ai/ha
  Plant response rating, Galium: 90
[1]; 250 g ai/ha
  Plant response rating, Galium: 90
[2]; 31 g ai/ha
  Plant response rating, Barnyardgrass: 90
[2]; 62 g ai/ha
  Plant response rating, Barnyardgrass: 95
[2]; 125 g ai/ha
  Plant response rating, Barnyardgrass: 98
[2]; 250 g ai/ha
  Plant response rating, Barnyardgrass: 98
[3]; 31 g ai/ha
  Plant response rating, Blackgrass: 55
[3]; 62 g ai/ha
  Plant response rating, Blackgrass: 70
[3]; 125 g ai/ha
  Plant response rating, Blackgrass: 90
[3]; 250 g ai/ha
  Plant response rating, Blackgrass: 90
[4]; 31 g ai/ha
  Plant response rating, Corn: 25
[4]; 62 g ai/ha
  Plant response rating, Corn: 15
[4]; 125 g ai/ha
  Plant response rating, Corn: 60
[4]; 250 g ai/ha
  Plant response rating, Corn: 75
[5]; 31 g ai/ha
  Plant response rating, Crabgrass, Large: 98
[5]; 62 g ai/ha
  Plant response rating, Crabgrass, Large: 98
[5]; 125 g ai/ha
  Plant response rating, Crabgrass, Large: 100
[5]; 250 g ai/ha
  Plant response rating, Crabgrass, Large: 100
[6]; 31 g ai/ha
  Plant response rating, Foxtail, Giant: 95
[6]; 62 g ai/ha
  Plant response rating, Foxtail, Giant: 95
[6]; 125 g ai/ha
  Plant response rating, Foxtail, Giant: 98
[6]; 250 g ai/ha
  Plant response rating, Foxtail, Giant: 98
[7]; 31 g ai/ha
  Plant response rating, Lambsquarters: 30
[7]; 62 g ai/ha
  Plant response rating, Lambsquarters: 70
[7]; 125 g ai/ha
  Plant response rating, Lambsquarters: 75
[7]; 250 g ai/ha
  Plant response rating, Lambsquarters: 75
[8]; 31 g ai/ha
  Plant response rating, Morningglory: 5
[8]; 62 g ai/ha
  Plant response rating, Morningglory: 55
[8]; 125 g ai/ha
  Plant response rating, Morningglory: 60
[8]; 250 g ai/ha
  Plant response rating, Morningglory: 70
[9]; 31 g ai/ha
  Plant response rating, Nutsedge, Yellow: 0
[9]; 62 g ai/ha
  Plant response rating, Nutsedge, Yellow: 10
[9]; 125 g ai/ha
  Plant response rating, Nutsedge, Yellow: 50
[9]; 250 g ai/ha
  Plant response rating, Nutsedge, Yellow: 70
[10]; 31 g ai/ha
  Plant response rating, Oilseed Rape: 20
[10]; 62 g ai/ha
  Plant response rating, Oilseed Rape: 70
[10]; 125 g ai/ha
  Plant response rating, Oilseed Rape: 80
[10]; 250 g ai/ha
  Plant response rating, Oilseed Rape: 85
[11]; 31 g ai/ha
  Plant response rating, Pigweed: 55
[11]; 62 g ai/ha
  Plant response rating, Pigweed: 90
[11]; 125 g ai/ha
  Plant response rating, Pigweed: 95
[11]; 250 g ai/ha
  Plant response rating, Pigweed: 95
[12]; 31 g ai/ha
  Plant response rating, Ragweed: 20
[12]; 62 g ai/ha
  Plant response rating, Ragweed: 75
[12]; 125 g ai/ha
  Plant response rating, Ragweed: 70
[12]; 250 g ai/ha
  Plant response rating, Ragweed: 70
[13]; 62 g ai/ha
  Plant response rating, Ryegrass, Italian: 60
[13]; 125 g ai/ha
  Plant response rating, Ryegrass, Italian: 60
[13]; 250 g ai/ha
  Plant response rating, Ryegrass, Italian: 60
[14]; 62 g ai/ha
  Plant response rating, Velvetleaf: 25
[14]; 125 g ai/ha
  Plant response rating, Velvetleaf: 30
[14]; 250 g ai/ha
  Plant response rating, Velvetleaf: 45
[15]; 62 g ai/ha
  Plant response rating, Waterhemp: 90
[15]; 125 g ai/ha
  Plant response rating, Waterhemp: 98
[15]; 250 g ai/ha
  Plant response rating, Waterhemp: 95
[16]; 62 g ai/ha
  Plant response rating, Wheat: 45
[16]; 125 g ai/ha
  Plant response rating, Wheat: 45
[16]; 250 g ai/ha
  Plant response rating, Wheat: 70
